In PMC7438494 (Communications Biology, 2020):
Like-named read-outs stand apart in the source and are kept apart here.

Molecular target: human ATP synthase (Homo sapiens, UniProt P00846+P05496)
Experiment: biochemical
Assay type: biochemical

COc1nc2ccc(Br)cc2cc1[C@@H](c1ccccc1)[C@@](O)(CCN(C)C)c1cccc2ccccc12 [BDQ, Bedaquiline]
activity at 1 µM (Human Mito, 4th exp (18_12_26), BDQ 1 uM, read-out: Cyanide sensitive % activity): 8.67%
activity at 2 µM (Human Mito, 4th exp (18_12_26), BDQ 2 uM, read-out: Cyanide sensitive % activity): 2.82%
activity at 5 µM (Human Mito, 4th exp (18_12_26), BDQ 5 uM, read-out: Cyanide sensitive % activity): -2.55%
activity at 10 µM (Human Mito, 4th exp (18_12_26), BDQ 10 uM, read-out: Cyanide sensitive % activity): 0%
Cyanide sensitive (Human Mito, 5th exp (19), BDQ in DMSO, Bedaquiline 5e-5 μM, 60 min): 8.081 nmol/min/mg
Cyanide sensitive (Human Mito, 5th exp (19), BDQ in DMSO, Bedaquiline 0.0005 μM, 60 min): 7.799 nmol/min/mg
activity at 0.0005 µM (Human Mito, 5th exp (19), BDQ in DMSO, Bedaquiline 0.0005 μM, 60 min, read-out: % activity): 75.5%
Cyanide sensitive (Human Mito, 5th exp (19), BDQ in DMSO, Bedaquiline 0.005 μM, 60 min): 7.932 nmol/min/mg
activity at 0.005 µM (Human Mito, 5th exp (19), BDQ in DMSO, Bedaquiline 0.005 μM, 60 min, read-out: % activity): 71.9%
Cyanide sensitive (Human Mito, 5th exp (19), BDQ in DMSO, Bedaquiline 0.1 μM, 60 min): 7.371 nmol/min/mg
activity at 0.1 µM (Human Mito, 5th exp (19), BDQ in DMSO, Bedaquiline 0.1 μM, 60 min, read-out: % activity): 76.1%
Cyanide sensitive (Human Mito, 5th exp (19), BDQ in DMSO, Bedaquiline 0.2 μM, 60 min): 5.1485 nmol/min/mg
activity at 0.2 µM (Human Mito, 5th exp (19), BDQ in DMSO, Bedaquiline 0.2 μM, 60 min, read-out: % activity): 61.2%
Cyanide sensitive (Human Mito, 5th exp (19), BDQ in DMSO, Bedaquiline 0.5 μM, 60 min): 7.123 nmol/min/mg
activity at 0.5 µM (Human Mito, 5th exp (19), BDQ in DMSO, Bedaquiline 0.5 μM, 60 min, read-out: % activity): 73.7%
Cyanide sensitive (Human Mito, 5th exp (19), BDQ in DMSO, Bedaquiline 0.65 μM, 60 min): 5.712 nmol/min/mg
activity at 0.65 µM (Human Mito, 5th exp (19), BDQ in DMSO, Bedaquiline 0.65 μM, 60 min, read-out: % activity): 69.7%
Cyanide sensitive (Human Mito, 5th exp (19), BDQ in DMSO, Bedaquiline 1 μM, 60 min): -0.04135 nmol/min/mg
activity at 1 µM (Human Mito, 5th exp (19), BDQ in DMSO, Bedaquiline 1 μM, 60 min, read-out: % activity): 11.1%
Cyanide sensitive (Human Mito, 5th exp (19), BDQ in DMSO, Bedaquiline 2 μM, 60 min): -0.9975 nmol/min/mg
activity at 2 µM (Human Mito, 5th exp (19), BDQ in DMSO, Bedaquiline 2 μM, 60 min, read-out: % activity): 5%
Cyanide sensitive (Human Mito, 5th exp (19), BDQ in DMSO, Bedaquiline 5 μM, 60 min): -2.758 nmol/min/mg
activity at 5 µM (Human Mito, 5th exp (19), BDQ in DMSO, Bedaquiline 5 μM, 60 min, read-out: % activity): 0.69%
Cyanide sensitive (Human Mito, 5th exp (19), BDQ in DMSO, Bedaquiline 10 μM, 60 min): -0.848 nmol/min/mg
activity at 10 µM (Human Mito, 5th exp (19), BDQ in DMSO, Bedaquiline 10 μM, 60 min, read-out: % activity): 3.96%
activity at 0.0005 µM (Human Mito, 5th exp (19_01_02), BDQ 0.0005 uM, read-out: Cyanide sensitive % activity): 75.5%
activity at 0.005 µM (Human Mito, 5th exp (19_01_02), BDQ 0.005 uM, read-out: Cyanide sensitive % activity): 71.9%
activity at 0.1 µM (Human Mito, 5th exp (19_01_02), BDQ 0.1 uM, read-out: Cyanide sensitive % activity): 76.1%
activity at 0.2 µM (Human Mito, 5th exp (19_01_02), BDQ 0.2 uM, read-out: Cyanide sensitive % activity): 61.2%
activity at 0.5 µM (Human Mito, 5th exp (19_01_02), BDQ 0.5 uM, read-out: Cyanide sensitive % activity): 73.7%
activity at 0.65 µM (Human Mito, 5th exp (19_01_02), BDQ 0.65 uM, read-out: Cyanide sensitive % activity): 69.7%
activity at 1 µM (Human Mito, 5th exp (19_01_02), BDQ 1 uM, read-out: Cyanide sensitive % activity): 11.1%
activity at 2 µM (Human Mito, 5th exp (19_01_02), BDQ 2 uM, read-out: Cyanide sensitive % activity): 5%
activity at 5 µM (Human Mito, 5th exp (19_01_02), BDQ 5 uM, read-out: Cyanide sensitive % activity): 0.69%
activity at 10 µM (Human Mito, 5th exp (19_01_02), BDQ 10 uM, read-out: Cyanide sensitive % activity): 3.96%
Cyanide sensitive % activity, Average (Human Mito, average of experiments, BDQ 5e-6 uM): 75.05%
Cyanide sensitive % activity, Average (Human Mito, average of experiments, BDQ 5e-5 uM): 71.33%
activity at 0.0005 µM (Human Mito, average of experiments, BDQ 0.0005 uM, read-out: Cyanide sensitive % activity, Average): 78.5%
activity at 0.005 µM (Human Mito, average of experiments, BDQ 0.005 uM, read-out: Cyanide sensitive % activity, Average): 68%
activity at 0.1 µM (Human Mito, average of experiments, BDQ 0.1 uM, read-out: Cyanide sensitive % activity, Average): 70.6%
activity at 0.2 µM (Human Mito, average of experiments, BDQ 0.2 uM, read-out: Cyanide sensitive % activity, Average): 57.6%
activity at 0.5 µM (Human Mito, average of experiments, BDQ 0.5 uM, read-out: Cyanide sensitive % activity, Average): 52.1%
activity at 0.65 µM (Human Mito, average of experiments, BDQ 0.65 uM, read-out: Cyanide sensitive % activity, Average): 44.5%
activity at 0.85 µM (Human Mito, average of experiments, BDQ 0.85 uM, read-out: Cyanide sensitive % activity, Average): 27.4%
activity at 1 µM (Human Mito, average of experiments, BDQ 1 uM, read-out: Cyanide sensitive % activity, Average): 6.29%
activity at 2 µM (Human Mito, average of experiments, BDQ 2 uM, read-out: Cyanide sensitive % activity, Average): 0.46%
activity at 5 µM (Human Mito, average of experiments, BDQ 5 uM, read-out: Cyanide sensitive % activity, Average): -2%
activity at 10 µM (Human Mito, average of experiments, BDQ 10 uM, read-out: Cyanide sensitive % activity, Average): 0.62%
activity at 0.0005 µM (Human Mito, plotted duplicates, first column, BDQ 0.0005 uM, read-out: % activity): 81.5%
activity at 0.005 µM (Human Mito, plotted duplicates, first column, BDQ 0.005 uM, read-out: % activity): 88.5%
activity at 0.1 µM (Human Mito, plotted duplicates, first column, BDQ 0.1 uM, read-out: % activity): 71.2%
activity at 0.2 µM (Human Mito, plotted duplicates, first column, BDQ 0.2 uM, read-out: % activity): 59.5%
activity at 0.5 µM (Human Mito, plotted duplicates, first column, BDQ 0.5 uM, read-out: % activity): 51.2%
activity at 0.65 µM (Human Mito, plotted duplicates, first column, BDQ 0.65 uM, read-out: % activity): 37.6%
activity at 0.85 µM (Human Mito, plotted duplicates, first column, BDQ 0.85 uM, read-out: % activity): 33.1%
activity at 1 µM (Human Mito, plotted duplicates, first column, BDQ 1 uM, read-out: % activity): 8.67%
activity at 2 µM (Human Mito, plotted duplicates, first column, BDQ 2 uM, read-out: % activity): 2.82%
activity at 5 µM (Human Mito, plotted duplicates, first column, BDQ 5 uM, read-out: % activity): -2.55%
activity at 10 µM (Human Mito, plotted duplicates, first column, BDQ 10 uM, read-out: % activity): -2.1%
activity at 0.0005 µM (Human Mito, plotted duplicates, second column, BDQ 0.0005 uM, read-out: % activity): 75.5%
activity at 0.005 µM (Human Mito, plotted duplicates, second column, BDQ 0.005 uM, read-out: % activity): 71.9%
activity at 0.1 µM (Human Mito, plotted duplicates, second column, BDQ 0.1 uM, read-out: % activity): 76.1%
activity at 0.2 µM (Human Mito, plotted duplicates, second column, BDQ 0.2 uM, read-out: % activity): 61.2%
activity at 0.5 µM (Human Mito, plotted duplicates, second column, BDQ 0.5 uM, read-out: % activity): 58%
activity at 0.65 µM (Human Mito, plotted duplicates, second column, BDQ 0.65 uM, read-out: % activity): 40%
activity at 0.85 µM (Human Mito, plotted duplicates, second column, BDQ 0.85 uM, read-out: % activity): 32.5%
activity at 1 µM (Human Mito, plotted duplicates, second column, BDQ 1 uM, read-out: % activity): 11.1%
activity at 2 µM (Human Mito, plotted duplicates, second column, BDQ 2 uM, read-out: % activity): 1.13%
activity at 5 µM (Human Mito, plotted duplicates, second column, BDQ 5 uM, read-out: % activity): 0.69%
activity at 10 µM (Human Mito, plotted duplicates, second column, BDQ 10 uM, read-out: % activity): 3.96%
extent of inhibition of ATP synthesis of the human enzyme (in words): nearly completely
activity at 0.0005 µM (read-out: % activity): 89.6%
activity at 0.1 µM (read-out: % activity): 81.7%
activity at 0.2 µM (read-out: % activity): 77.1%
activity at 0.5 µM (read-out: % activity): 62.5%
activity at 0.85 µM (read-out: % activity): 54%
activity at 1 µM (read-out: % activity): 48.4%
activity at 2 µM (read-out: % activity): 45.8%
activity at 10 µM (read-out: % activity): 36.3%
inhibition at 0.2 µM (read-out: % inhibition): 22.9%
inhibition at 0.5 µM (read-out: % inhibition): 37.5%
inhibition at 1 µM (read-out: % inhibition): 57.4%
inhibition at 2 µM (read-out: % inhibition): 54.2%
inhibition at 10 µM (read-out: % inhibition): 63.7%
